We go through 2 compounds from patent US12172966B1, “2-(1H-imidazole-1-carbonyl)benzoic acid as an anticancer compound” (KING FAISAL UNIVERSITY, priority 2023, dated 2024).

Each structure is given as a SMILES string.

In experiment [1] the test system is human prostate cancer cells (PC3). Nature of the experiment: Assessment of cytotoxicity by SRB assay, prostate cancer cells. The note with it: for IC50: mean±SD. The class given is cell-based. The text has this:
(§1) The anticancer activity of the described synthesized compounds against highly aggressive androgen-independent metastatic human prostate cancer cells (PC3) and osteosarcoma (MG-63) cells. The human prostate cancer cells (PC3) and human osteosarcoma cells (MG-63) were obtained from Nawah Scientific Inc. (Mokatam, Cairo, Egypt) and cultured in DMEM (Dulbecco's modified eagle's medium), Gibco, USA, supplemented with fetal bovine serum (FBS) at a concentration of 10% and 100 U/mL of penicillin and streptomycin (PS). The Cells were incubated at 37° C. in a humidified environment that contained 5% CO2.
(§2) Cells were seeded in 96-well plates as aliquots of 100 μL cell suspension and incubated in a complete media for 24 h. afterward, cells were treated with 2-(1H-imidazole-1-carbonyl)benzoic acid at diverse concentrations ranging from 0.01 μM to 100 μM for 72 h. Then, cells were fixed at 4° C. for one hour with 150 μL of 10% trichloroacetic acid (TCA). After washing the cells five times with distilled water, […] of sulforhodamine (SRB) solution (0.4% w/v) was added and incubated for 10 min at room temperature in a dark place. Cells were washed with 1% acetic acid three times and allowed to air-dry. Then, 150 μL of Tris pH 10.5 (10 mM) was added, and the absorbance was measured at 540 nm using a BMG LABTECH®—FLUOstar Omega microplate reader (Ortenberg, Germany). Half maximal inhibitory concentrations (IC50) values were calculated for each experiment using GraphPad Prism 6 software. IC50 values were reported as mean±SD.
(§3) The inhibition was calculated using the following equation: Inhibition %=100−Average Viability

Experiment [2] relates to human osteosarcoma cells (MG-63). Nature of the experiment: Assessment of cytotoxicity by SRB assay, osteosarcoma cells. The class given is cell-based. As to conditions: for IC50: mean±SD.
Source text: as §1, §2, §3
Background: Sulforhodamine B stains cellular protein and so reports cell mass.

[3] abbreviates: Homo sapiens, MG-63 cells, 72 h.

With `O=C(O)c1ccccc1C(=O)n1ccnc1` [2-(1H-imidazole-1-carbonyl)benzoic acid], the inhibition at 10 µg/mL in experiment [1] (Homo sapiens, PC-3, 72 h, PC-3 cells, 10 μg/ml, 72 h) worked out at 93%; in experiment [2] (Homo sapiens, MG-63 cells, 10 μg/ml, 72 h), 88.9%. Moreover, the IC50 in experiment [1] (Homo sapiens, PC-3 cells, 72 h) stood at 2.67 ± 0.03 µM; in experiment [2] (setting [3]) it was 3.55 ± 0.2 µM. The “Prostate cancer (PC-3) Inhibition %” value in experiment [1] (PC-3 cells, 10 μg/ml, 72 h) was determined as 93.44%. The same compound registered an IC50 values, prostate cancer cell line in experiment [1] (PC-3 cells, bound stated in text for both cell lines) below 4 µM. In experiment [1] (result in words), the “antiproliferative activities against cancer cells (PC3)” value is “excellent antiproliferative activities”. In addition, the inhibition at 100 µg/mL in experiment [2] (Homo sapiens, MG-63 cells, 100 μg/ml, 72 h) turned out to be 90.9%. This compound had an IC50 values, osteosarcoma cell line in experiment [2] (MG-63 cells, bound stated in text for both cell lines) below 4 µM. Besides, the “antiproliferative activities against osteosarcoma (MG-63) cells” value in experiment [2] (result in words) was “excellent antiproliferative activities”.

As for `COc1cccc2c1C(=O)c1c(O)c3c(c(O)c1C2=O)C[C@@](O)(C(=O)CO)C[C@@H]3O[C@H]1C[C@H](N)[C@H](O)[C@H](C)O1` [DOX, Doxorubicin, reference compound], the IC50 in experiment [1] (Homo sapiens, PC-3 cells, 72 h) was determined as 7.5 ± 0.45 µM; in experiment [2] (setting [3]), 9.3 ± 1.1 µM.

For orientation: inhibition means the percentage by which the read-out fell short of the control. Read a low inhibition as little suppression. The term IC50 denotes the midpoint of a concentration-inhibition curve. High values mean weaker potency, low ones greater potency.
